From patent US20250084039A1, “4-SUBSTITUTED AMINOISOQUINOLINE DERIVATIVES” (Purdue Research Foundation, priority 2016, published 2025)
Read-outs that look alike come from different tables or passages of the source.

How the values were obtained:
FLT3 ITD = FLT3 ITD (Homo sapiens, UniProt P36888); assay: DiscoverX Kd Elect binding
From the text: (§1) Although the current drugs on the market or in clinical trials are relatively successful in killing the AML leukemia cells, they currently are unable to deal with secondary mutations that occur after TKI treatment, such as FLT3 ([…]).

MV-4-11 = assay: Proliferation inhibition at single concentration (CellTiter-Blue); type: cell-based; settings: 1 μM compound
MV4-11 [1] = assay: IC50 proliferation assay (Alamar Blue, 72 h); type: cell-based; settings: read-out: IC50 (proliferation inhibition) Cell line - MV4-11
In short: (§2)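 Cells seeded ~18 h before treatment with semi-serial compound dilutions made in DMSO then growth medium. After 72 h exposure, Alamar Blue added and read following 4 h further at 37 °C; IC50 for proliferation inhibition.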

K562 = assay: IC50 proliferation assay (Alamar Blue, 72 h); type: cell-based
HCT116 = assay: Proliferation inhibition at single concentration (CellTiter-Blue); type: cell-based; settings: 1 μM compound
MV4-11 [2] = assay: IC50 determination (proliferation assay, CellTiter-Blue); type: cell-based
Description: (§3) Cell lines were seeded into 96-well plates the afternoon prior to treatment. Approximately 18 hours later, compounds were diluted in dimethyl sulfoxide (DMSO) and added to cells. Plates were incubated for 72 hours and cells viability determined with CellTiter-Blue Cell Viability Assay (Promega, Madison, WI). Plates were read after 4 additional hours of incubation at 37° C. using plate reader (Bio-Tek, Winooski. VT). Data was analyzed and graphed using GraphPad Prism Software (Graphpad. La Jolla, CA). […]

MOLM14 = assay: as above; type: cell-based
Description: as §3

RET = RET (Homo sapiens (Human), UniProt P07949); assay: Reaction Biology HotSpot kinase assay; type: biochemical; settings: 500 nM compound
Description: (§4) The Reaction Biology Corporation (www.reactionbiology.com, Malvern, PA) HotSpot assay platform was used to measure kinase/inhibitor interactions exactly as previously described. Kinase and substrate were mixed in a buffer containing 20 mM HEPES pH 7.5, 10 mM MgCl2, 1 mM EGTA, 0.02% Brij35, 0.02 mg/mL BSA, 0.1 mM Na3VO4, 2 mM DTT and 1% DMSO. Single-dose of compounds (500 nM) were then added to each reaction mixture. After 20-minute incubation. ATP (Sigma) and [γ-^33P] ATP (Perkin Elmer) were added at a final total concentration of 100 μM for addition 2 hours at room temperature, followed by spotting onto P81 ion exchange cellulose chromatography paper (Whatman, Inc.). […] Percent remaining kinase activity of a vehicle (DMSO) containing kinase reaction was calculated for each kinase/inhibitor pair using Prism 5 (GraphPad).
as §4, with “1” for “DTT”, “incubation,” for “incubation.”

c-Src = c-Src (Homo sapiens (Human), UniProt P12931); assay: Reaction Biology HotSpot kinase assay; type: biochemical; settings: 500 nM compound
c-Src, sequence (P12931 whole entry, looked up): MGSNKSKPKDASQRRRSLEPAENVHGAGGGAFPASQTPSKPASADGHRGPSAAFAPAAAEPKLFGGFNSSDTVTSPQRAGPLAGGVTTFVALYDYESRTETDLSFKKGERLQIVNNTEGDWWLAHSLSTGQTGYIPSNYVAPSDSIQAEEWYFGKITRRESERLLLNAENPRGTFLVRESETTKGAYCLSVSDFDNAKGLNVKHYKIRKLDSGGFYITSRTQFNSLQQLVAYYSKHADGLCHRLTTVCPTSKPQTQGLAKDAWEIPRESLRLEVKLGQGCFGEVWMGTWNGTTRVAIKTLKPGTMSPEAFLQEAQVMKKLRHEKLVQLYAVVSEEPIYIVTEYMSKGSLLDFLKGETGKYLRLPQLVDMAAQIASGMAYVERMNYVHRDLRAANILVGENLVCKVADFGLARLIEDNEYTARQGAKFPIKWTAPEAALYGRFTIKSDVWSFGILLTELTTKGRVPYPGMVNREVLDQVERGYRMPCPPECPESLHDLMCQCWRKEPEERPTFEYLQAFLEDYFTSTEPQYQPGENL
Description: as §4
as §4, with “1” for “DTT”, “incubation,” for “incubation.”

FGFR1 = FGFR1 (Homo sapiens (Human), UniProt P11362); assay: Reaction Biology HotSpot kinase assay; type: biochemical; settings: 500 nM compound
FGFR1, sequence (P11362 22-822): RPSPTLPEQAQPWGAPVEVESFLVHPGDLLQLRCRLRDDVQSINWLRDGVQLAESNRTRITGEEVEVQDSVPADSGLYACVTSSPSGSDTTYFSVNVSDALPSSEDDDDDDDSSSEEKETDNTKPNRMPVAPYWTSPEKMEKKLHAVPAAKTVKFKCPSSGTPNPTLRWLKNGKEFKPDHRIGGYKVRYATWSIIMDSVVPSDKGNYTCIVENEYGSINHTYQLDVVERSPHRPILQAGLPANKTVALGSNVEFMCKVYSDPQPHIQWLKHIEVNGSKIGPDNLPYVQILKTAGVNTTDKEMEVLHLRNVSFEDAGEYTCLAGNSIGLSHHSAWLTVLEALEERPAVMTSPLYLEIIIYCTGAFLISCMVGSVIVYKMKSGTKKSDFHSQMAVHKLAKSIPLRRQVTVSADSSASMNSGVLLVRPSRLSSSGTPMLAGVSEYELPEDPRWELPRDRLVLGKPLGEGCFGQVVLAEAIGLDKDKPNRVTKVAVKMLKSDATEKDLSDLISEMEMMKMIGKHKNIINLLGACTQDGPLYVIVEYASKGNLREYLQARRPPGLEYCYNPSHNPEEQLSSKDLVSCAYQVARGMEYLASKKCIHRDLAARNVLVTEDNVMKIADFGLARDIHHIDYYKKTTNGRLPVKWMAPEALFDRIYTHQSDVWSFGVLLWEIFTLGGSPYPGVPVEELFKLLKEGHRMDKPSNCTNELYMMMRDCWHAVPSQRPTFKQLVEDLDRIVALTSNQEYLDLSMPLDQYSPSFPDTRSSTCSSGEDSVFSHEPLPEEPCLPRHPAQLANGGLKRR
Description: as §4
as §4, with “1” for “DTT”, “incubation,” for “incubation.”

HeLa = assay: Proliferation inhibition at single concentration (CellTiter-Blue); type: cell-based; settings: 1 μM compound
MCF-7 = assay: as above; type: cell-based; settings: 1 μM compound
FLT3 = FLT3 (Homo sapiens (Human), UniProt P36888); assay: DiscoverX Kd Elect binding
FLT3, sequence (P36888 27-993): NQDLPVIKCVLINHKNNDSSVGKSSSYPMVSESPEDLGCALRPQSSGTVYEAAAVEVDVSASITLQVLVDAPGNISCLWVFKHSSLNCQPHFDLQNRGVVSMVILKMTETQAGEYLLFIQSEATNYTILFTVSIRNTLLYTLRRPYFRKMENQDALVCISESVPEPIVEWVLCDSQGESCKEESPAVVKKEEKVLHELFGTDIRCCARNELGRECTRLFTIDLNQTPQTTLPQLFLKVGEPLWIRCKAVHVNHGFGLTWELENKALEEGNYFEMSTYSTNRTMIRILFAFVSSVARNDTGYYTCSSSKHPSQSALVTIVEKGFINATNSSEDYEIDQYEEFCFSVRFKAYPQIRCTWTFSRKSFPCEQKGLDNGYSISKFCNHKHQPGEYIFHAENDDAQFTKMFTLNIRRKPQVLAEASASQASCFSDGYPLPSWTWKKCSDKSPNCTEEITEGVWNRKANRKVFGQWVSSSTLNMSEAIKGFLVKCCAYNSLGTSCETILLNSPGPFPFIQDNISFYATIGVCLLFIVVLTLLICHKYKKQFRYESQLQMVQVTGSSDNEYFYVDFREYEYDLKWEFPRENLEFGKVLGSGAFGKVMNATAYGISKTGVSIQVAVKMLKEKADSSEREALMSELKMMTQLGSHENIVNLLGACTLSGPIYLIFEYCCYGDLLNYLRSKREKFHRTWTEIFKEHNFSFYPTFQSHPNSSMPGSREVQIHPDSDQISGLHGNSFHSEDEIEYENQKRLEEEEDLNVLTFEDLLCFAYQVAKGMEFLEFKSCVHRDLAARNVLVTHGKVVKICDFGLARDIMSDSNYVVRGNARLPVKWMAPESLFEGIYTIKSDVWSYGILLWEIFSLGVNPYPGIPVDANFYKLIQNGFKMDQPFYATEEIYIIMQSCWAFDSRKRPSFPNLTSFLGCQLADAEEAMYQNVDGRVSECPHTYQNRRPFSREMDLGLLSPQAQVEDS
From the text: as §1
HCK is expressed more in human primary leukemic stem cells than in human normal hematopoietic stem cells. […] Other protein kinases such as SYK, BRAF, p38 (p38MAPK), PDGFRα/β, FGFR1, RET, FLT4, Tie2 have also been linked to leukemia. […] (Table 9). The inhibition of the Src-kinase family could be important clinically because these kinases are downstream of FLT3. In the event of FLT3 mutation, the inhibition of the Src-family kinases could still lead to proliferation inhibition.

FLT3 (ITD) = FLT3 (ITD) (Homo sapiens, UniProt P36888, ITD); assay: DiscoverX Kd Elect binding; settings: read-out: Kd FLT3 (ITD)
FLT3 (ITD), sequence (P36888 whole entry, looked up, change not shown): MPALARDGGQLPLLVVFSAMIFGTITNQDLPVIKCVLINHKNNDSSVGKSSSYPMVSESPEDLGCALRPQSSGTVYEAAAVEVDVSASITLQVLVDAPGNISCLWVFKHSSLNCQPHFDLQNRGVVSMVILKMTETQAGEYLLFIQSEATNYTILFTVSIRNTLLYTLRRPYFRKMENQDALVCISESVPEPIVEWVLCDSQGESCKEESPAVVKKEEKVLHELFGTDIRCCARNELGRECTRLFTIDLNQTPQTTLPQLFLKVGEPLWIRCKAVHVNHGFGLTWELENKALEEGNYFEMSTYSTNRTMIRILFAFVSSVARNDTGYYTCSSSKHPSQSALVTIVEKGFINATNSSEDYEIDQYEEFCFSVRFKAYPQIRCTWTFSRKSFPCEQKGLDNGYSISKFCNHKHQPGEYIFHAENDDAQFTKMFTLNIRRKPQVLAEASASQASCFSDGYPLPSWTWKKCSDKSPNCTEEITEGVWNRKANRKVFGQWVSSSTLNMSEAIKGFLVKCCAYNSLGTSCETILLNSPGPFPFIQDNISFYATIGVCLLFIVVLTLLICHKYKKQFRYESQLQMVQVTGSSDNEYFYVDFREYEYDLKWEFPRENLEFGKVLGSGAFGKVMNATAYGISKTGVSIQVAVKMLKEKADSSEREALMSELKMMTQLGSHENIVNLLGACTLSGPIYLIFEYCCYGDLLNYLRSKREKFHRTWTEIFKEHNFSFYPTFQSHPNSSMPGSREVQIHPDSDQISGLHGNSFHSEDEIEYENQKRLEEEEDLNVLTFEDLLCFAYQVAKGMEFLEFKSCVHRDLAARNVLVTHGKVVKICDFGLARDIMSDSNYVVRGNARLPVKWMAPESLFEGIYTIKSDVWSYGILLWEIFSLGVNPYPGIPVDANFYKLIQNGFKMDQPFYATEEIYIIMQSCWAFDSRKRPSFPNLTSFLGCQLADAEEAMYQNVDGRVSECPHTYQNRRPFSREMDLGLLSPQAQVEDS
From the text: as §1

FLT3 (ITD, F691L) = FLT3 (ITD, F691L) (Homo sapiens, UniProt P36888, F691L/ITD); assay: DiscoverX Kd Elect binding; settings: read-out: Kd FLT3 (ITD, F691L)
FLT3 (ITD, F691L), sequence (P36888 whole entry, looked up, stated change not applied): as the sequence (P36888 whole entry, looked up, change not shown) above

NCI H1703 (NSCLC) = assay: Activity against lung cancer cell line; type: cell-based; settings: Homo sapiens, NCI-H1703
HLY-1 = assay: IC50 proliferation assay (Alamar Blue, 72 h); type: cell-based; settings: read-out: IC50 HLY-1 (lymphoma cell line)
In short: as §2

MiaPaca-2 = assay: IC50 proliferation assay (Alamar Blue, 72 h); type: cell-based; settings: Homo sapiens, MIA PaCa-2; read-out: IC50 MiaPaca-2 (pancreatic cell line)
In short: as §2

BTK = BTK (Homo sapiens (Human), UniProt Q06187); assay: Reaction Biology HotSpot kinase assay; type: biochemical; settings: 500 nM compound; read-out: Percentage kinase inhibition BTK
BTK, sequence (Q06187 whole entry): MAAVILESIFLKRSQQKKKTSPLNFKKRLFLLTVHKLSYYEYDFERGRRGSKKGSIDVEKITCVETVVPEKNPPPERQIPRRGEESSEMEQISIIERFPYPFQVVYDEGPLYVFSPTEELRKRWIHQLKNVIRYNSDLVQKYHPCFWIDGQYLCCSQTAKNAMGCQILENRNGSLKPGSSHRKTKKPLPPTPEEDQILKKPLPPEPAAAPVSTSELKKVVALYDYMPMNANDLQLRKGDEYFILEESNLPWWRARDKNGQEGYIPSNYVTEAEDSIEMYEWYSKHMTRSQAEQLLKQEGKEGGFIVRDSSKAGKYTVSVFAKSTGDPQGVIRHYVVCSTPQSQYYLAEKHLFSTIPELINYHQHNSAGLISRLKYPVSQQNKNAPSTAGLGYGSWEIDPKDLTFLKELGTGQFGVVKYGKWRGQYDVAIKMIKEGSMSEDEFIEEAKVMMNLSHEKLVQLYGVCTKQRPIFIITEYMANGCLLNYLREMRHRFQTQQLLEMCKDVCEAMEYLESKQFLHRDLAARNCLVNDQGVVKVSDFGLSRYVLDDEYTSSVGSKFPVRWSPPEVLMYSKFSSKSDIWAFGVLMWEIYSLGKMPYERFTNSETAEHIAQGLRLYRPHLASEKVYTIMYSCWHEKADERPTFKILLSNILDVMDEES
Description: as §4
as §4, with “1” for “DTT”, “incubation,” for “incubation.”

FLT3 ITD, sequence (P36888 whole entry, looked up, change not shown): as the sequence (P36888 whole entry, looked up, change not shown) above

## Cc1ccc(C(=O)NCC(O)CN(C)C)cc1C#Cc1c(N)ncc2ccc(Cl)cc12 (centres unmarked) [HSN178]
FLT3 ITD
  Kd: 450 nM
MV-4-11
  Percent inhibition of proliferation MV-4-11: 98%
MV4-11 [1]; 72 h
  IC50: 171 nM
K562; 72 h, read-out: IC50 (proliferation inhibition) Cell line - K562
  IC50: 1440 nM
K562; Table 18, read-out: Inhibition of proliferation of K562 cell lines (CML)
  IC50: 1443 ± 0.21 nM
HCT116
  Percent inhibition of proliferation HCT116: 97%
MV4-11 [2]
  IC50: 144 ± 2.6 nM
  proliferation inhibition in words, MV4-11 / AML: only moderate inhibitors
MOLM14
  IC50: 187 ± 5.5 nM
RET
  Percentage kinase inhibition RET: 0%
c-Src
  Percentage kinase inhibition c-Src: 1%
FGFR1
  Percentage kinase inhibition FGFR1: 3%
HeLa
  Percent inhibition of proliferation HeLa: 100%
MCF-7
  Percent inhibition of proliferation MCF-7: 100%
FLT3
  Kd: 53 nM

## Cc1ncc(C(=O)Nc2ccc(CN3CCN(C)CC3)c(C(F)(F)F)c2)cc1C#Cc1cnc(N)c2ccccc12 [HSN461, 5-((1-aminoisoquinolin-4-yl)ethynyl)-6-methyl-N-(4-((4-methylpiperazin-1-yl)methyl)-3-(trifluoromethyl)phenyl)nicotinamide]
FLT3 (ITD)
  Kd: 7.9 nM
FLT3 (ITD, F691L)
  Kd: 91 nM
MV4-11 [2]; Homo sapiens, MV4-11
  IC50: < 1 nM
NCI H1703 (NSCLC)
  IC50: 157 nM

## CC1(C)CNC(c2ccc(C#Cc3cc(N)nc4ccccc34)cc2F)=N1 [HSM1856, 4-((4-(4,4-dimethyl-4,5-dihydro-1H-imidazol-2-yl)-3-fluorophenyl)ethynyl)quinolin-2-amine]
HLY-1
  IC50: 80 nM
MV4-11 [1]; Homo sapiens, MV4-11, 72 h
  IC50: 25 nM
MiaPaca-2
  IC50: 400 nM
BTK
  inhibition at 0.5 µM: 70%
